# Literature values in patent US7666858B2, “Pharmaceutical composition for treatment of phimosis using topical corticosteroid” (Apsen Farmaceutica S.A., priority 2000, dated 2010).
# Columns and labels:
# [1] = Lindhagen 1996
solubility in alcohol (alcohol),solubility in water (water),SMILES,success [1]
–,–,CCC(=O)O[C@]1(C(=O)CCl)[C@@H](C)C[C@H]2[C@@H]3CCC4=CC(=O)C=C[C@]4(C)[C@@]3(F)[C@@H](O)C[C@@]21C [clobetasol propionate],70%
partially alcohol-soluble,water-insoluble,C[C@H]1C[C@H]2[C@@H]3CCC4=CC(=O)C=C[C@]4(C)[C@@]3(F)[C@@H](O)C[C@]2(C)[C@@]1(O)C(=O)CO [Betamethasone],–
